How the values were obtained:
[1] = system: Salmonella typhimurium strain TA98; test: AMES mutagenic assay, TA98 strain
Procedure: Mutagenic activity of test compounds and their metabolites (produced by rat liver S9 fraction) was evaluated in the Salmonella typhimurium strains TA100 and TA98 according to the Ames assay (Toxicology in vitro, (2001), 15: 105-114). […] The results are expressed as a mutagenicity ratio in comparison to solvent controls.
The results are expressed as a ratio of the number of colonies over the number of colonies in the negative control (DMSO).

Jak3 = Jak3 (Homo sapiens (Human), UniProt P52333); test: HTRF kinase assay, Jak3; format: biochemical; conditions: enzymatic determination
Procedure: Most of the kinases tested in this study were cloned, expressed and purified in the facilities of the inventors. They were expressed either as N-terminus hexahistidine-, hexahistidine-asparagine- or GST-tagged enzymes in a baculovirus or in a Colibacille expression system. Remaining enzymes (JAKs) were purchased from Millipore or Proqinase. For each enzyme, steady state kinetic parameters were determined and validated with known inhibitors.
The analysis of the effect of compounds on kinase activity was assessed with the HTRF® KinEASE assay (Cisbio International), an immuno-assay based on the quantification of the level of phosphorylation of a biotinylated peptide substrate using anti-phospho-specific antibody labeled with Europium (Eu^3+) cryptate. This assay comprises two steps: —an enzymatic step, during which the peptide substrate, the kinase, ATP, Mg^2+ and/or Mn^2+ are incubated with varying concentration of drug (from 0 to 10 μM); —a detection step, at the end of the reaction (stopped by addition of EDTA which chelates Mg^2+), the antibody anti-phospho peptide-Eu^3+ (emission 620 nm) and streptavidin XL-665 (emission 665 nm) are added to the reaction mix. […] Results are expressed in delta fluorescence (DF) unit defined as follow DF %=[(ratio−ratio blank)/(ratio blank)]*100, where ratio=(665 nm/620 nm)*10^4. […]

murine model of asthma = test: Mouse model of asthma: airway responsiveness (FlexiVent); format: in vivo, Balb/c male mice; conditions: ovalbumin-sensitized mice, PO twice daily
Procedure: Balb/c male mice, 8 weeks old, were purchased from Janvier (Le Genest-Saint-Isle; FRANCE) and bred in the animal facility for 4 weeks. Drugs were dissolved in drinking solvent (80% water; 10% Tween 80 and 10% isopropanediol). It was aliquoted and stored at −20° C. Each mouse received drugs twice a day. The weight of animals was calculated before and after treatment.
Mice, 9 weeks of age, were sensitized with 50 μg of ovalbumin (Sigma-Aldrich, Germany) adsorbed to 2 mg Al(OH)3 (Prolabo, France) and diluted in physiological saline (0.9% NaCl). Ovalbumin was injected intraperitoneally on days 1 and 7. Sensitization was followed by intranasal challenges with 10 μg of ovalbumin diluted in 0.9% NaCl, each day from day 18 to day 21. On days 17 to 21, animals treated with drugs received 100 μl of a solution at 15 mg/ml, at 7.5 mg/ml or at 3.75 mg/ml administered per os twice a day during 5 days. These treatments corresponded to concentration of 60 mg/mouse kg, 30 mg/mouse kg and 15 mg/mouse kg respectively.
The airway responsiveness was measured using the invasiveness FlexiVent® (SCIREQ) technique. […] The baseline values were measured after saline solution nebulization and airway hyperresponsiveness evaluated after nebulization of a 0.26M metacholine solution (50 mg/ml).

[2] = system: murine model of arthritis; test: K/BxN serum mouse model of rheumatoid arthritis: ankle thickening and arthritis score; format: in vivo, C57Bl/6 mice
Procedure: K/B×N serum pools were prepared from arthritic mice at 8 weeks of age. The mice were pre-treated with SYK inhibitors by two per os administration for two days before induction of arthritis. Arthritis was induced in the C57Bl/6 mice (8 weeks of age) by intraperitoneal injection (7.5 μl serum per g weight) at days 0 and 2.
The treatment with SYK inhibitors was continued for 13 days. The control mice were injected with solvent before the induction of arthritis and during the course of the disease. The compounds were dissolved in a solution containing 10% of Tween 80 and 10% 1-2 propandiol. It was prepared before administration.
Ankle thickening measure, being defined as the difference in ankle thickness from the day 0, was measured using a precision calliper. Arthritis/clinical score was defined by sum of scores of each lim (0 no disease; 1 mild swelling of paw or of just of few digits; 2 clear joint inflammation; 3 severe joint inflammation) maximum score=12.
K/B×N was a murine model of spontaneous rheumatoid arthritis that mimics many of the clinical and histological features of human disease with synovitis predominantly in the distal small joints. Arthritis was induced by intraperitoneal injection of arthritis serum of K/B×N mice at days 0 and 2 as described in protocol assays above. Compound 001 was tested at 15 and 50 mg/kg/day b.i.d. and compared with Masitinib at 50 mg/kg/day b.i.d., an AB Science drug candidate for treating rheumatoid arthritis (Arthritis Res Ther., (2009), 11(3):R95). Ankle thickening and arthritis score were used to monitor the in vivo activity of the compounds.

[3] = TA98, absence of S-9, 0.5 μg per well
[4] = TA98, absence of S-9, 1.4 μg per well
[5] = TA98, absence of S-9, 4.1 μg per well
[6] = TA98, absence of S-9, 12.3 μg per well
[7] = TA98, absence of S-9, 37 μg per well
[8] = TA98, absence of S-9, 111.1 μg per well
[9] = TA98, absence of S-9, 333.3 μg per well
[10] = TA98, absence of S-9, 1000 μg per well
[11] = TA98, presence of S-9, 0.5 μg per well
[12] = TA98, presence of S-9, 1.4 μg per well
[13] = TA98, presence of S-9, 4.1 μg per well
[14] = TA98, presence of S-9, 12.3 μg per well
[15] = TA98, presence of S-9, 37 μg per well
[16] = TA98, presence of S-9, 111.1 μg per well
[17] = TA98, presence of S-9, 333.3 μg per well
[18] = TA98, presence of S-9, 1000 μg per well

Sequence of Jak3 (P52333 whole entry): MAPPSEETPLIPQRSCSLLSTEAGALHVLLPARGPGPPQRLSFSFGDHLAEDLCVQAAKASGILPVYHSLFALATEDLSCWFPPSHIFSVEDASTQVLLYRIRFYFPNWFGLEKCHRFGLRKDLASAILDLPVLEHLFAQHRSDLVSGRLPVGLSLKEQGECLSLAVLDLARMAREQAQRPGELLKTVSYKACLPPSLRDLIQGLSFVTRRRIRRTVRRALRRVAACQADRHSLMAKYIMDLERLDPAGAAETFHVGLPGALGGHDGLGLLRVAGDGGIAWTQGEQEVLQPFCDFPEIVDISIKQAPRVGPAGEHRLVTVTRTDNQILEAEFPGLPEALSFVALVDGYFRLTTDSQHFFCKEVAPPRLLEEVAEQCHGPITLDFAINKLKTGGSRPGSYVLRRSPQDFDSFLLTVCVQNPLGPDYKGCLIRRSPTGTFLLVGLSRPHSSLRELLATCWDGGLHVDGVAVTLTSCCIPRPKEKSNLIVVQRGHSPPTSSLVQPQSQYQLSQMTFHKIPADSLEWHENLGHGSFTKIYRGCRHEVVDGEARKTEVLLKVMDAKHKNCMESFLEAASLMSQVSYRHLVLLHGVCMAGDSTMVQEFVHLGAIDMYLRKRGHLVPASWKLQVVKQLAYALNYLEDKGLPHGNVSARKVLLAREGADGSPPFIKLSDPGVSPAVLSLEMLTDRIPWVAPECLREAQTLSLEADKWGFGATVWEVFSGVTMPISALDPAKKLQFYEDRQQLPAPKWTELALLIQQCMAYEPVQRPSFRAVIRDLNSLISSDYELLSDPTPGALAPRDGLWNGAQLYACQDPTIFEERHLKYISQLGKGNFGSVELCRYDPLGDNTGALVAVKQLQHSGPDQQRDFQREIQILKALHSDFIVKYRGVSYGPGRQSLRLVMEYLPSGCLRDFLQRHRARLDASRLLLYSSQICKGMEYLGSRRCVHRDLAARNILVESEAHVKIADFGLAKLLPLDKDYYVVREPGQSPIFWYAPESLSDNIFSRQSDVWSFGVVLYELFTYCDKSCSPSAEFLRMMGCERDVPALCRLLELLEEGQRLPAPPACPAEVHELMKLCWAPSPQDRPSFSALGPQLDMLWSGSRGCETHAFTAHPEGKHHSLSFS

## Cc1ccnc(Nc2cccc(-c3cnc(N4CCNC(=O)C45CC5)o3)c2)n1 [Compound 001, 4-{5-[3-(4-Methyl-pyrimidin-2-ylamino)-phenyl]-oxazol-2-yl}-4,7-diaza-spiro[2.5]octan-8-one]
[1]; [3]
  Mean revertant colony counts: 7.3
  Ratio treated/solvent: 1.7
[1]; [4]
  Mean revertant colony counts: 4.3
  Ratio treated/solvent: 1.0
[1]; [5]
  Mean revertant colony counts: 6.3
  Ratio treated/solvent: 1.5
[1]; [6]
  Mean revertant colony counts: 5.3
  Ratio treated/solvent: 1.2
[1]; [7]
  Mean revertant colony counts: 8.3
  Ratio treated/solvent: 1.9
[1]; [8]
  Mean revertant colony counts: 6.3
  Ratio treated/solvent: 1.5
[1]; [9]
  Mean revertant colony counts: 4.3
  Ratio treated/solvent: 1.0
[1]; [10]
  Mean revertant colony counts: 3.7
  Ratio treated/solvent: 0.8
[1]; [11]
  Mean revertant colony counts: 10.3
  Ratio treated/solvent: 3.9
[1]; [12]
  Mean revertant colony counts: 7.3
  Ratio treated/solvent: 2.8
[1]; [13]
  Mean revertant colony counts: 9.3
  Ratio treated/solvent: 3.5
[1]; [14]
  Mean revertant colony counts: 6.7
  Ratio treated/solvent: 2.5
[1]; [15]
  Mean revertant colony counts: 5.7
  Ratio treated/solvent: 2.1
[1]; [16]
  Mean revertant colony counts: 7.3
  Ratio treated/solvent: 2.8
[1]; [17]
  Mean revertant colony counts: 6.3
  Ratio treated/solvent: 2.4
[1]; [18]
  Mean revertant colony counts: 5.0
  Ratio treated/solvent: 1.9
[1]; TA98, with or without liver metabolic activation system (S9 mix)
  mutagenic activity: did not show any mutagenic activity
Jak3
  IC50: 20 µM
Murine model of asthma
  bronchial hyper-responsiveness: reduced bronchial hyper-responsiveness in a dose-dependent manner
[2]; 15 mg/kg b.i.d.
  Ankle Thickening Score: −17%
  Arthritis Score: −23%
[2]; 50 mg/kg b.i.d.
  Ankle Thickening Score: −52% P < 0.005
  Arthritis Score: −68% P < 0.005
[2]; 2×50 mg/kg/day
  reduction of ankle thickening: 52%
  reduction of arthritis score: 68%

— patent US10053455B2, “Diazaspiroalkaneone-substituted oxazole derivatives as spleen tyrosine kinase inhibitors” (AB SCIENCE, priority 2014, dated 2018)
